From ChEMBL document CHEMBL1125472, “5-lipoxygenase: properties, pharmacology, and the quinolinyl(bridged)aryl class of inhibitors” (J Med Chem, 1992)
pIC50: −log10 of the molar value. Values belong to the compound of their own block, whether it stands above or below them.

Key:
[1] = target: T1, Prostaglandin G/H synthase (cyclooxygenase) (Mus musculus, UniProt P22437+Q05769); test: The compound was tested for inhibitory activity against Prostaglandin G/H synthase in mouse macrophage; type: protein assay
T1 sequence (P22437 whole entry): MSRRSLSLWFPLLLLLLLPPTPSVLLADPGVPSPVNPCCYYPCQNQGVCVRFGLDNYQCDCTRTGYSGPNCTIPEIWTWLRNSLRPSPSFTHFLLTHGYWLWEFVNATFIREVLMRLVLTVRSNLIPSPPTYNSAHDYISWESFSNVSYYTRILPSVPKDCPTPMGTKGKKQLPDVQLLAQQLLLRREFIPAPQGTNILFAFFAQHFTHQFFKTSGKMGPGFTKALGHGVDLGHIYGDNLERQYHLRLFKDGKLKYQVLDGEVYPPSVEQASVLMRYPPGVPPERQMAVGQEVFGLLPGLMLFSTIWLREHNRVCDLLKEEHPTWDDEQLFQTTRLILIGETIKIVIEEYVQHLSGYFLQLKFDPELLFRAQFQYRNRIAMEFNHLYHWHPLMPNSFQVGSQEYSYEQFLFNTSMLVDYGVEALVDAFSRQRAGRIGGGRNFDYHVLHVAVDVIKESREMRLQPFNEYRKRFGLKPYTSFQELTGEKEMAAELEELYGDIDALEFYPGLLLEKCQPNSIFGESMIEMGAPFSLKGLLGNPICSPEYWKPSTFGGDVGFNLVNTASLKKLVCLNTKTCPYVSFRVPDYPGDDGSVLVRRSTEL
T1 sequence (Q05769 whole entry): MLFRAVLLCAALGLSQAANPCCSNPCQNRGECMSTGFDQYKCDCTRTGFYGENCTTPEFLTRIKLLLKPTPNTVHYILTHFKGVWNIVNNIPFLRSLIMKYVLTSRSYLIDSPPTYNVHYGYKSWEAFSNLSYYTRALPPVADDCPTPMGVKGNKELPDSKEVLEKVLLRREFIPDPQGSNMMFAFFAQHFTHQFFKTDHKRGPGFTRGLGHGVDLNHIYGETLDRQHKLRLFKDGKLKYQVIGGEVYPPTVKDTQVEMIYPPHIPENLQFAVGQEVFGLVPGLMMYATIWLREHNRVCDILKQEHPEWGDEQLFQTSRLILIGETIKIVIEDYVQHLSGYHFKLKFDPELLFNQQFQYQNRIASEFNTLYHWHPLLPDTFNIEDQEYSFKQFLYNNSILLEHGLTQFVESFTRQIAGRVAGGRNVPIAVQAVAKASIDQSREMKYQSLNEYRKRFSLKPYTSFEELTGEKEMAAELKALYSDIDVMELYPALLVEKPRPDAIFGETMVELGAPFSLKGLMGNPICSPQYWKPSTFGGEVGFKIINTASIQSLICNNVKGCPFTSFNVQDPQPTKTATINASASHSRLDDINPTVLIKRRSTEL

[2] = target: T2, Polyunsaturated fatty acid 5-lipoxygenase (Homo sapiens, UniProt P09917); test: The compound was tested for inhibitory activity against 5-lipoxygenase in human polymorphonuclear leukocytes[PMNS]; type: cell-based
T2 sequence (P09917 whole entry): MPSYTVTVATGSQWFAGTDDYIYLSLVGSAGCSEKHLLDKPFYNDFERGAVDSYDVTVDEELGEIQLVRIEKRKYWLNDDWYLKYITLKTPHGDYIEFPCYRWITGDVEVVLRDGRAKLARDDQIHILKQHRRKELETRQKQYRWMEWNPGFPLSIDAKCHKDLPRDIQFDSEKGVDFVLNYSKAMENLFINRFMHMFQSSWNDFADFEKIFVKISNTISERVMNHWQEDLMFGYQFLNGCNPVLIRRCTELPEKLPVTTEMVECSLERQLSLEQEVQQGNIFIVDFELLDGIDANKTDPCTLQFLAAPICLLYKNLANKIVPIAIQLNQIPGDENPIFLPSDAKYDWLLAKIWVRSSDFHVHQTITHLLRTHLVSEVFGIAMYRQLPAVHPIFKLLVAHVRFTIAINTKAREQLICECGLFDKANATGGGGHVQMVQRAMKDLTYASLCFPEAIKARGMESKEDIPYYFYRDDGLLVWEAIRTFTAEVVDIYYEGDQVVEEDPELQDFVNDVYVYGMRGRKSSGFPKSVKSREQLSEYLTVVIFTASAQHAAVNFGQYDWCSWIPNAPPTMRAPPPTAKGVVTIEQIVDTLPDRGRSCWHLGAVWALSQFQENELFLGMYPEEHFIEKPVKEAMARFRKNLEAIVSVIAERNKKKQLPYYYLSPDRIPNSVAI

[3] = Oral bioavailability was determined; range 49-102%; type: ADME, organism-based; conditions: in vivo, read-out: Bioavailabiility
Rattus norvegicus [4] = species: Rattus norvegicus; test: The compound was tested for inhibitory activity against synthesis of immunoreactive LTB4; type: functional
Cavia porcellus [5] = species: Cavia porcellus; test: The compound was tested for blocking of LTD4-induced contractions of guinea pig trachea; type: functional; conditions: read-out: pA2 (converted)
Rattus norvegicus [6] = species: Rattus norvegicus; test: The compound was tested for inhibitory activity against synthesis of immunoreactive thromboxane B2 in rat PMNs; type: functional
Mus musculus [7] = species: Mus musculus; test: The compound was tested for inhibitory activity which inhibits LTC4 synthesis by zymosan-activated mouse peritoneal macrophages; type: functional
Cavia porcellus [8] = test: The inhibitory dose for antigen induced bronchoconstriction in guinea pig after peroral administration; type: functional; conditions: po, read-out: ID50 (the source's name)
Rattus norvegicus [9] = test: The compound was tested for inhibition in rat carrageenan paw edema assay; type: functional
[10] = The compound was tested for inhibitory activity which inhibits prostaglandin E2[PGE2] synthesis by zymosan-activated mouse peritoneal macrophages; type: functional
[11] = Plasma half-life was determined; 0.5-17.7h; type: ADME
[12] = target: T3, Polyunsaturated fatty acid 5-lipoxygenase (Rattus norvegicus, UniProt P12527); test: The compound was tested for inhibitory activity against 5-lipoxygenase in rat RBL-1; type: cell-based
T3 sequence (P12527 whole entry): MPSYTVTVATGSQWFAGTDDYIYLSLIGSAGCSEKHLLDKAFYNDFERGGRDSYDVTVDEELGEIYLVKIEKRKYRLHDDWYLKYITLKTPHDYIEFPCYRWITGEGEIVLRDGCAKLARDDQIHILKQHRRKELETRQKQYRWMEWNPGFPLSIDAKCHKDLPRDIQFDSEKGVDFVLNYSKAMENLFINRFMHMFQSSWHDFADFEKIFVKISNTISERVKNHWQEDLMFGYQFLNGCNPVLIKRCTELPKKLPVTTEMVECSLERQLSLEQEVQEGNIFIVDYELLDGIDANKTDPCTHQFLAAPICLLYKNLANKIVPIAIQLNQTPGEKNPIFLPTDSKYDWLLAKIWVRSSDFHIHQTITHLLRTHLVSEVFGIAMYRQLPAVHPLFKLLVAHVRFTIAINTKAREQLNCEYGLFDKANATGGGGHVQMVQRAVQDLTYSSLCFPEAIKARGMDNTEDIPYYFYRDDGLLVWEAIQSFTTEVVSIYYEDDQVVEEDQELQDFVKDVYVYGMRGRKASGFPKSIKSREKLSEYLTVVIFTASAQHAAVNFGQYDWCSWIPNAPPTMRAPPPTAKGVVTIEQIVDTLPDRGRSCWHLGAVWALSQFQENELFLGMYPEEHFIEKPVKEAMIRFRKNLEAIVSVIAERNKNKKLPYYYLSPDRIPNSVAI

[13] = target: T3, Polyunsaturated fatty acid 5-lipoxygenase; test: The compound was tested for inhibitory activity against 5-lipoxygenase in rat polymorphonuclear leukocytes[PMNS] (in vitro); type: cell-based
[14] = target: Cyclooxygenase (Rattus norvegicus) (UniProt P35355+Q63921); test: The compound was tested for inhibition of Prostaglandin G/H synthase in rat polymorphonuclear leukocytes[PMNS] at 100 uM concentration; type: functional, cell-based
Rattus norvegicus [15] = test: The effective dose after peroral administration for antiinflammatory activity against rat carrageenan edema; type: functional; conditions: po
Mus musculus [16] = test: The effective dose for inhibition of mouse zymosan peritonitis (in vivo); type: functional
Rattus norvegicus [17] = species: Rattus norvegicus; test: The compound was tested for inhibitory activity against […] synthesis in rat macrophages; type: functional
RBL-1 [18] = test: The compound was tested for inhibitory activity against 5-HETE synthesis in rat RBL-1; type: functional, cell-based
RBL-1 [19] = test: The compound was tested for inhibitory activity in rat RBL-1 cells; type: functional, cell-based
Cavia porcellus [20] = test: The compound was tested for inhibition of LTD4-induced bronchoconstriction in guinea pig at 50 mg/kg (in vivo); type: functional; conditions: read-out: Inhibition
Cyclooxygenase = target: T4, Cyclooxygenase (Rattus norvegicus, UniProt P35355+Q63921); test: The compound was tested for inhibitory activity against Prostaglandin G/H synthase using rat polymorphonuclear leukocytes[PMNS]
T4 sequence (P35355 whole entry): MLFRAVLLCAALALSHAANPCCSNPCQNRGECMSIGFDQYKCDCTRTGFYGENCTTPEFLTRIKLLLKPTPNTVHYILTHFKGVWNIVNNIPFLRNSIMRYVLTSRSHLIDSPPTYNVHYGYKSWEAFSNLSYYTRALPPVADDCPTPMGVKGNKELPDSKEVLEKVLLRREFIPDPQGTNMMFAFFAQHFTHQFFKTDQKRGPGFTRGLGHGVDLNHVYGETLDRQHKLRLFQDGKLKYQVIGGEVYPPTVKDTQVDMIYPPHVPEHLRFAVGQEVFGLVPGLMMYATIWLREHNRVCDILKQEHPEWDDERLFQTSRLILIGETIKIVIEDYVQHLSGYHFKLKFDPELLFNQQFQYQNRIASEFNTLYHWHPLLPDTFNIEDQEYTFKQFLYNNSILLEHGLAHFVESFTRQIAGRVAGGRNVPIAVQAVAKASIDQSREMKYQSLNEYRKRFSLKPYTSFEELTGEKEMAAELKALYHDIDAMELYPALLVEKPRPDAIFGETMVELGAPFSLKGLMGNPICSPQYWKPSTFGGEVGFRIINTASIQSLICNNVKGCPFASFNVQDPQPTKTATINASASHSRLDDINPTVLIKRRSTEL
T4 sequence (Q63921 whole entry): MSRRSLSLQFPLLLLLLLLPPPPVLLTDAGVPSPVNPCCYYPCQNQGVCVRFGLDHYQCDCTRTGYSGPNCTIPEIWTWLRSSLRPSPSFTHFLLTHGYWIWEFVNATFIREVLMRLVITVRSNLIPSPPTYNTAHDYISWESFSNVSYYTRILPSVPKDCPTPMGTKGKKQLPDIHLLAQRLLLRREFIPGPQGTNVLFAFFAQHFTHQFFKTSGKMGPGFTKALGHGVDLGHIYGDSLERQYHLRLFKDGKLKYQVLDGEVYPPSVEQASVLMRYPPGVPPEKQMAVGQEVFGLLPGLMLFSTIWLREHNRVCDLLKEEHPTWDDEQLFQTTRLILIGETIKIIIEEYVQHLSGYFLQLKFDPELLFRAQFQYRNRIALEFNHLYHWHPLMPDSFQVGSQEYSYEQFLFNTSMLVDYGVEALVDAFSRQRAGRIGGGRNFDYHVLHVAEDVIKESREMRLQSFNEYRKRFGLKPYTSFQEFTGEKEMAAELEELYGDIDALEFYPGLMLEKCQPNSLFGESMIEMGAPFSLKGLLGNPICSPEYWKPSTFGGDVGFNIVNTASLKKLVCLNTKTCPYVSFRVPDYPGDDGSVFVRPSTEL

[21] = target: T3, Polyunsaturated fatty acid 5-lipoxygenase; test: The compound was tested for inhibitory activity against 5-lipoxygenase using rat polymorphonuclear leukocytes[PMNS]
RBL-2H3 [22] = test: The compound was tested for inhibition of translocation in SAR in RBL-2H3 cells; type: functional, Rattus norvegicus
[23] = target: T5, Polyunsaturated fatty acid 5-lipoxygenase (Rattus norvegicus) (UniProt P12527); test: The compound was tested for inhibition of isolated 5-Lipoxygenase
T5 sequence (whole entry): T3 sequence (P12527 whole entry)

Mus musculus [24] = species: Mus musculus; test: The compound was tested for inhibition of prostaglandin E2[PGE2] synthesis; type: functional, organism-based
Mus musculus [25] = species: Mus musculus; test: The compound was tested for inhibitory activity against LTC4 synthesis in mouse peritoneal macrophages; type: functional
RBL-2H3 [26] = test: The compound was tested for inhibition LTC4 synthesis; type: functional, Rattus norvegicus
Mus musculus [27] = species: Mus musculus; test: The compound was tested for inhibition of thromboxane B2 synthesis; type: functional, organism-based

SMILES: Cc1c(CC(=O)O)c2cc(OCc3ccc4ccccc4n3)ccc2n1Cc1ccc(Cl)cc1
IC50 [1]: 0.004 µM

SMILES: O=S(=O)(Nc1cccc(OCc2ccc3ccccc3n2)c1)C(F)(F)F [RITOLUKAST]
bioavailability [3]: 49%
pIC50 (Rattus norvegicus [4]): 5.34
Kb (Cavia porcellus [5]): 0.024 µM
pIC50 (Rattus norvegicus [6]): 5.48
pIC50 (Mus musculus [7]): 5.36
ED50 (Cavia porcellus [8]): 0.6 mg/kg
Inhibition (Rattus norvegicus [9]): 20%
pIC50 [10]: 5.37
half-life [11]: 30 min

SMILES: CCN1C(=S)N(c2ccc(N3CCN(c4ccc(O)cc4)CC3)cc2)C(=O)C1(C)C
pIC50 [12]: 6.30

SMILES: CC1=C(C)C(=O)C(Cc2cccnc2)=C(C)C1=O
pIC50 (RBL-1 [18]): 7.21

SMILES: C[C@H](OCC(=O)O)[C@@H](C)Sc1cc(C(C)(C)C)c(O)c(C(C)(C)C)c1
pIC50 (RBL-1 [19]): 5.43

More lines, main results first:

pIC50 [2]: 7.70
SMILES: O=C(O)c1ccc(CN(Cc2cccc(F)c2)c2ccc(OCc3ccc4ccccc4n3)cc2)cc1

pIC50 [13]: 6.89
Inhibition [14]: 30%
SMILES: CC(C(=O)O)c1ccc2cc(OCc3ccc4ccccc4n3)ccc2c1 (stereo not drawn)
ED50 (Rattus norvegicus [15]): 75 mg/kg
ED50 (Mus musculus [16]): 11.1 mg/kg

pIC50 (Rattus norvegicus [17]): 7.10
SMILES: CC1=C(C)C(=O)C(CCCCC#CCCCC#CCO)=C(C)C1=O [DOCEBENONE]

IC50 (Cyclooxygenase): > 100 µM
pIC50 [21]: 5.22
SMILES: Oc1cccc(OCc2ccc3ccccc3n2)c1
inhibition in vivo at 50 mg/kg (Cavia porcellus [20]): 82%

Inhibition [23]: 1530 nM
pIC50 (Mus musculus [24]): 5.14
pIC50 (Mus musculus [25]): 6.35
pIC50 (Mus musculus [27]): 5.34
SMILES: COC(=O)CCC(=O)N(O)c1cccc(OCc2ccc3ccccc3n2)c1
Inhibition (RBL-2H3 [22]): 750 nM
Inhibition (RBL-2H3 [26]): 780 nM
